According to patent US7417023B2, “Targeted delivery of bioaffecting compounds for the treatment of cancer” (Faulk Pharmaceuticals, Inc., priority 2001, dated 2008):
Where two headings read alike, the source gives them in different places.

Assays:
[1] = tested on: leukemic cells in peripheral blood; conditions: cited from earlier work
[2] = tested on: human mesothelioma cells; conditions: nude mice, compared to animals treated only with doxorubicin; cited from earlier work
[3] = tested on: doxorubicin-resistant cancer cells; conditions: cited from earlier work
[4] = tested on: metastatic disease from a sarcoma
[5] = tested on: advanced ovarian cancer; assay: unpublished clinical study of 23 patients with advanced ovarian cancer; type: in vivo, human; conditions: equivalent to 1 mg doxorubicin per day, days 15 through 19 of monthly cycles; time between diagnosis and randomization 18 months; vs placebo
Protocol: There is an unpublished clinical study of 23 patients with advanced ovarian cancer who were randomized into test (12 patients) and placebo (11 patients) groups. The test group received transferrin-doxorubicin conjugates equivalent to 1 mg doxorubicin per day on days 15 through 19 of monthly treatment cycles.

[6] = tested on: transferrin receptors; assay: regulation of transferrin receptors on drug-sensitive and drug-resistant cancer cells; type: cell-based; conditions: more on drug-resistant than on drug-sensitive cells
[7] = tested on: drug-resistant cancer cells; assay: viability of drug-resistant cancer cells; type: cell-based; conditions: after 48 hours in a given concentration
Text: (§1) In order to test the relationship between calcium and transferrin receptors, the effect of calcium channel inhibitors on the regulation of transferrin receptors was studied in drug-sensitive and drug-resistant cancer cells. […]. […] The addition of both iron and calcium channel blockers had no effect on cell viability.
(§2) In light of the above findings, another series of experiments were done to determine whether the restriction of iron by deferoxamine had differential effects on drug-sensitive and drug-resistant cancer cells.

[8] = tested on: drug-sensitive cancer cells; assay: viability of drug-sensitive cancer cells; type: cell-based; conditions: after 48 hours in a given concentration
Text: as §1, §2

Compound: transferrin-doxorubicin conjugates
- toxic effects ([1]; 7 acute leukemia patients, 1 mg/day intravenously for 5 days): no toxic effects
- decrease of the number of leukemic cells in peripheral blood ([1]; 7 patients, within 10-days following therapy): 86%
- extension of disease by bone marrow biopsies ([1]; before and after treatment): no extension of disease
- survival [2]: significantly prolonging life
- killing of drug-resistant cancer cells [3]: effectively kill multi-drug resistant cells
- killing of drug-resistant cancer cells ([3]; listed as doxorubicin conjugates of transferrin): kill doxorubicin-resistant cancer cells
- radiological evidence of tumor ([4]; by January): no radiological evidence of tumor
- metastatic lesions of the lungs ([4]; treatment begun August 2000, by November): substantially cleared of metastatic lesions
- Cox regression estimates of survival rates [5]: significant difference

Compound: COc1cccc2c1C(=O)c1c(O)c3c(c(O)c1C2=O)C[C@@](O)(C(=O)CO)C[C@@H]3O[C@H]1C[C@H](N)[C@H](O)[C@H](C)O1 [doxorubicin, reference compound]
- killing of drug-resistant cancer cells [3]: not killed by 10-fold higher concentrations

Compound: [Cl][Cd][Cl] [CdCl2, reference compound]
- regulation of transferrin receptors by calcium channel blockers or iron [6]: down-regulation of receptors

Compound: transferrin-bound iron: iron bound to transferrin
- regulation of transferrin receptors by calcium channel blockers or iron [6]: down-regulated receptors much more on drug-resistant cells

Compound: CC(=O)N(O)CCCCCNC(=O)CCC(=O)N(O)CCCCCNC(=O)CCC(=O)N(O)CCCCCN [deferoxamine]
- viability (cells alive) [7]: 16%
- viability [8]: 93%
